Values quoted from earlier work as cited in US20150216903A1, “COMPOUNDS FOR IMPROVED VIRAL TRANSDUCTION” (BLUEBIRD BIO, INC., priority 2012, published 2015).

How the values were obtained:
HIV = details: previous publications (Hayes 2002); cited from earlier work
[1] = Raz, FEBS Letters 1972; cited from earlier work

SMILES	effect on HIV replication (HIV)	conversion upon exposure to plasma [1]
CCCCC[C@H](O)/C=C/[C@H]1C=CC(=O)[C@@H]1C/C=C\CCCC(=O)O [PGA2, prostaglandin A2]	inhibits HIV replication	
CCCCC[C@H](O)/C=C/[C@H]1[C@H](O)CC(=O)[C@@H]1C/C=C\CCCC(=O)O [PGE2, prostaglandin E2]	antagonistic to HIV replication	rapidly converts to prostaglandin A2 (PGA2)
